Experimental data published in ChEMBL document CHEMBL1201862, “PubChem BioAssay data set” (2004).
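Five concentrations, 48 hours, 96-well plates. GI50 marks 50% less growth.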 Active and inactive are the calls of the source. Rule as the data show it: active = GI50 up to about 1.1 µM and inactive = higher.

Tests used:
Test in all cases: inhibition of tumour cell growth, NCI panel, 48 h
ACHN = tested on: ACHN
BT-549 = tested on: BT-549
CCRF-CEM = tested on: CCRF-CEM
COLO 205 = tested on: COLO 205
EKVX = tested on: EKVX
HL-60 = tested on: HL-60
IGROV-1 = tested on: IGROV-1
M14 = tested on: M14
MDA-MB-435 = tested on: MDA-MB-435
NCI-H226 = tested on: NCI-H226
NCI-H522 = tested on: NCI-H522
OVCAR-5 = tested on: OVCAR-5
SF-268 = tested on: SF-268
SK-MEL-28 = tested on: SK-MEL-28
SK-MEL-5 = tested on: SK-MEL-5
SN12C = tested on: SN12C
SNB-75 = tested on: SNB-75
SW-620 = tested on: SW-620
TK-10 = tested on: TK-10
UACC-257 = tested on: UACC-257

SMILES | GI50 (ACHN) | GI50 (BT-549) | GI50 (CCRF-CEM) | GI50 (COLO 205) | GI50 (EKVX) | GI50 (HL-60) | GI50 (IGROV-1) | GI50 (M14) | GI50 (MDA-MB-435) | GI50 (NCI-H226) | GI50 (NCI-H522) | GI50 (OVCAR-5) | GI50 (SF-268) | GI50 (SK-MEL-28) | GI50 (SK-MEL-5) | GI50 (SN12C) | GI50 (SNB-75) | GI50 (SW-620) | GI50 (TK-10) | GI50 (UACC-257)
O=C1c2cccc3cccc(c23)C(=O)N1CCCNCCCNCCCCNCCCNCCCN1C(=O)c2cccc3cccc(c23)C1=O | 3.97 µM (inactive) | 3.74 µM (inactive) | 0.479 µM (active) | 1.14 µM (inactive) | 5.48 µM (inactive) | 0.27 µM (active) | 1.96 µM (inactive) | 4.06 µM (inactive) | 2.73 µM (inactive) | 4.46 µM (inactive) | 0.789 µM (active) | 6.14 µM (inactive) | 1.93 µM (inactive) | 2.46 µM (inactive) | 5.93 µM (inactive) | 3.44 µM (inactive) | 2.52 µM (inactive) | 2.03 µM (inactive) | 11.6 µM (inactive) | 6.7 µM (inactive)
O=C(NNC(c1ccccc1)C(F)(F)F)c1ccncc1 (stereo not given) | > 100 µM (inactive) | > 100 µM (inactive) | > 100 µM (inactive) | > 100 µM (inactive) | > 100 µM (inactive) | > 100 µM (inactive) | > 100 µM (inactive) | > 100 µM (inactive) | > 100 µM (inactive) | > 100 µM (inactive) | > 100 µM (inactive) | > 100 µM (inactive) | > 100 µM (inactive) | > 100 µM (inactive) | > 100 µM (inactive) | > 100 µM (inactive) | > 100 µM (inactive) | > 100 µM (inactive) | > 100 µM (inactive) | > 100 µM (inactive)
O=C(/C=C\c1ccc(-c2ccccc2)cc1)c1cccs1 | 32.3 µM (inactive) | 15.6 µM (inactive) | 2.42 µM (inactive) | > 39.2 µM (inactive) | 53 µM (inactive) | 3.89 µM (inactive) | 29.4 µM (inactive) | > 100 µM (inactive) | 17.5 µM (inactive) | > 69.8 µM (inactive) | 3.87 µM (inactive) | 45.2 µM (inactive) | 22.5 µM (inactive) | > 100 µM (inactive) | > 70 µM (inactive) | 7.45 µM (inactive) | 28.6 µM (inactive) | 5.41 µM (inactive) | 46.2 µM (inactive) | > 100 µM (inactive)
O=C(Nc1ccn(C2CCC(CO)O2)c(=O)n1)c1ccccc1 (stereo not given) | > 100 µM (inactive) | > 100 µM (inactive) | 34.1 µM (inactive) | > 100 µM (inactive) | > 100 µM (inactive) | > 100 µM (inactive) | > 100 µM (inactive) | > 100 µM (inactive) | > 100 µM (inactive) | > 100 µM (inactive) | > 100 µM (inactive) | > 100 µM (inactive) | > 100 µM (inactive) | > 100 µM (inactive) | > 100 µM (inactive) | > 100 µM (inactive) | 79.6 µM (inactive) | > 100 µM (inactive) | > 100 µM (inactive) | > 100 µM (inactive)
CN(CCC(=O)O)C1=Nc2ccc(Cl)cc2C(c2ccccc2)=[N+]([O-])C1 | > 100 µM (inactive) | > 100 µM (inactive) | > 100 µM (inactive) | > 100 µM (inactive) | > 100 µM (inactive) | > 100 µM (inactive) | > 100 µM (inactive) | > 100 µM (inactive) | 86.1 µM (inactive) | > 100 µM (inactive) | > 100 µM (inactive) | > 100 µM (inactive) | > 100 µM (inactive) | > 100 µM (inactive) | > 100 µM (inactive) | > 100 µM (inactive) | > 100 µM (inactive) | > 100 µM (inactive) | > 100 µM (inactive) | > 100 µM (inactive)
CCC1(O)C(=O)OCc2c1cc1n(c2=O)Cc2cc3ccccc3nc2-1 (stereo not given) | 0.153 µM (active) | 0.211 µM (active) | < 0.0122 µM (active) | 0.101 µM (active) | 0.0869 µM (active) | 0.017 µM (active) | 0.0635 µM (active) | < 0.01 µM (active) | 0.139 µM (active) | 0.277 µM (active) | 0.0471 µM (active) | 0.347 µM (active) | < 0.0168 µM (active) | 0.334 µM (active) | 0.0473 µM (active) | 0.0703 µM (active) | < 0.0215 µM (active) | 0.167 µM (active) | 6.73 µM (inactive) | 0.417 µM (active)
CCc1nc(N)nc(N)c1-c1ccc(Cl)c(/N=C/N(C)C)c1 | 38.8 µM (inactive) | > 81.7 µM (inactive) | 30.3 µM (inactive) | 65 µM (inactive) | > 87.3 µM (inactive) | > 39.7 µM (inactive) | 27.1 µM (inactive) | 52.5 µM (inactive) | 45.9 µM (inactive) | > 100 µM (inactive) | 24.1 µM (inactive) | > 100 µM (inactive) | 62.1 µM (inactive) | > 100 µM (inactive) | 29.9 µM (inactive) | 91.4 µM (inactive) | > 96.4 µM (inactive) | 22.3 µM (inactive) | > 100 µM (inactive) | > 100 µM (inactive)
